According to paper PMC6384991, “5-Arylideneimidazolones with Amine at Position 3 as Potential Antibiotic Adjuvants against Multidrug Resistant Bacteria” (Molecules, 2019):
Where “and” joins values, the source holds several entries; their conditions need not be identical. Identical values can stand only once. Like-named read-outs stand apart in the source and are kept apart here.

Columns and labels:
E. aerogenes Ea-289 = assay: MIC (microdilution) against E. aerogenes Ea-289 overexpressing AcrAB-TolC, porin-deficient
[1] = system: E. aerogenes Ea-294, Ea-298; assay: MIC (microdilution) against E. aerogenes strains devoid of AcrAB / TolC
S. aureus ATCC 25923 [2] = assay: Intrinsic antibacterial activity (MIC, microdilution) against reference S. aureus strain; assay type: cell-based; conditions: S. aureus ATCC 25923, compound alone, MH II broth; for MIC: Staphylococcus aureus, ATCC25923, read-out: MIC Value
Protocol: (§1) Initially, 12 arylideneimidazolone derivatives were evaluated in vitro for their intrinsic antibacterial effect against two strains of S. aureus: the reference strain S. aureus ATCC 25923 and extremely-drug resistant (XDR) MRSA HEMSA 5 clinical isolate. This step of the study was necessary for: (i) elucidation whether molecules tested are devoid of antistaphylococcal activity and thus cannot become antimicrobial agents by themselves; and (ii) determination of the concentrations of compounds suitable for the further assay on their antibiotic adjuvant potency. In addition, the antistaphylococcal efficacy of oxacillin, which was paired with compounds tested, in the following assays was also assessed (Table 3).

MRSA HEMSA 5 [3] = assay: MIC reduction assay: influence on oxacillin susceptibility in MRSA; assay type: cell-based, S. aureus
Protocol: The lack of a direct antibacterial activity of arylideneimidazolone derivatives tested allowed analyzing their anti-resistance potency in combination with the β-lactam antibiotic, oxacillin. […] The potential of compounds to become antibiotic adjuvants was evaluated by comparing the drug effectiveness in the presence and absence of compounds tested, thereby, by determining activity gain parameter A (Table 5). […] Slightly lower adjuvant-like activity was determined for the imidazolone derivatives 7 and 10 (A = 8–16). The efficacy of the remaining compounds was slightly less marked, however, also significant. Although compounds tested improved noticeably the antibacterial activity of oxacillin against MRSA clinical isolate, none of them restored the activity of the antibiotic (MIC < 2 µg/mL) against this highly resistant strain.

[4] = system: AcrAB-TolC efflux pump in E. aerogenes Ea-289; assay: Real-time efflux (RTE) assay with 1,2'-dNA; conditions: compound 100 µM; Ea-289 strain
E. aerogenes CM-64 = assay: MIC (microdilution) against E. aerogenes CM-64 overexpressing AcrAB-TolC
MRSA HEMSA 5 [5] = assay: Intrinsic antibacterial activity (MIC, microdilution) against MRSA HEMSA 5; assay type: cell-based, S. aureus
Protocol: as §1

S. aureus ATCC 25923 [6] = assay: MIC reduction assay: influence on oxacillin susceptibility in reference strain; assay type: cell-based
[7] = system: MDR strains of Gram-negative bacteria; set-up: method as in PMID 26824939; conditions: cited from earlier work
HepG2 cells = assay: Hepatotoxicity, MTS viability assay; assay type: cell-based; conditions: 72 h; for HepG2 cells' viability: MTS
Protocol: Determination of potential hepatotoxicity was performed with hepatoma HepG2 cells by standard colorimetric MTS procedure. Compound 9 was diluted into the cell culture media in the following concentrations: 0.1, 1, 10 and 100 μM, added to the cells and incubated for 72 h at 37 °C in the presence of 5% CO2. The cytostatic drug doxorubicin (DX) was used at 1 µM, as the reference. […] However, in comparison to the result obtained for the reference DX the hepatotoxicity potential of tested compound is moderate, as its decreased cells’ viability to ~74% of control at 10 µM, whereas DX to ~15% of control at 1 µM (Figure 10).
The HepG2 cells were seeded in 96-well plates at a concentration of 1 × 10^4 cells/well and incubated for 24 h at 37 °C in 5% CO2 atmosphere to reach 50% of confluence. Compound 9 was diluted into fresh growth medium and added to the cells at the final concentrations 0.1 μM–100 μM. The positive controls DX and CCCP were added at 1 μM and 10 μM, respectively, and the cells were incubated for 72 h. The MTS reagent (CellTiter 96® AQueous One Solution Cell Proliferation Assay, Promega, Madison, WI, USA) was added next to the each well and incubated for 4 h. The absorbance was measured next using a microplate reader (EnSpire, PerkinElmer, Waltham, MA USA) at 490 nm to determine cells’ viability.

[8] = PAMPA membrane permeability (Pre-coated PAMPA Plate System Gentest); assay type: in vitro ADME; conditions: 200 µM in PBS pH 7.4, room temperature, read-out: Pe ± SD
[9] = system: Salmonella typhimurium TA100; assay type: cell-based; conditions: for Mean of Revertants: 72 h; for Fold Increase Over Baseline: mutagenic if ≥ 2; for Binomial B-Value: ≤ 0.01 may be cytotoxic effect
Protocol: The mutagenicity was evaluated using Ames microplate fluctuation protocol (MPF) performed with Salmonella typhimurium TA100 strain, which is able to detect base pair substitutions. Calculation of medium control baseline (MCB) was performed basing on mean number of revertants in standard medium control in addition with one standard deviation. According to the manufacturer’s protocol, the mutagen alert is determined as 2-fold of medium control baseline (2 x MCB), which in this study was calculated as 24 revertants.
Ames microplate fluctuation protocol (MPF) assay was obtained from Xenometrix AG (Allschwil, Switzerland). The occurrence of mutagen-induced or spontaneous reversion events to histidine prototrophy was determined as a growth of S. typhimurium TA100 in the indicator medium without histidine after 72 h incubation at 37 °C temperature. NQNO (0.5 µM) was used as a positive control. Compound 9 was tested in triplicate at the final concentrations 1 and 10 µM. The revertants’ growth induced the colour change of medium which was analysed next colourimetrically with a microplate reader (EnSpire, PerkinElmer, Waltham, MA, USA) at 420 nm.

[10] = Staphylococcus aureus, MRSA HEMSA 5, compound alone, MH II broth, read-out: MIC Value

Cl.NC1=N/C(=C\c2cccc(Oc3ccccc3)c2)C(=O)N1CCCN1CCOCC1 [Compound 17, (Z)-5-(3-phenoxybenzylidene)-2-amino-3-(3-morpholinopropyl)-3H-imidazol-4(5H)-one hydrochloride]
MIC (E. aerogenes Ea-289; Klebsiella aerogenes, EA289): > 2000 µM | increase of MIC for Ea-289 and CM-64 in comparison to Ea-298 and Ea-294 (E. aerogenes Ea-289; efflux overexpressing vs deficient strains): ≥ 4 fold | MIC ([1]; Klebsiella aerogenes): 500 µM | MIC (S. aureus ATCC 25923 [2]): 250 µM | reduction of MIC of oxacillin (MRSA HEMSA 5 [3]; MRSA HEMSA 5): 2 fold | Inhibitory efficiency (IE) of 1,2'-dNA efflux [4]: 61% | MIC (E. aerogenes CM-64; Klebsiella aerogenes, CM64): > 2000 µM | melting point: 227 to 230 °C | MIC (MRSA HEMSA 5 [5]; [10]): 250 µM

(Z)-5-((9H-Fluoren-2-yl)methylene)-2-amino-3-(2-(4-methylpiperazin-1-yl)ethyl)-3H-imidazol-4(5H)-one hydrochloride [Compound 13]
MIC (E. aerogenes Ea-289; Ea-289): 500 µM | MIC ([1]; Ea-294, Ea-298): 250 µM | MIC Value (S. aureus ATCC 25923 [2]): 0.0625 to 0.125 mM | Activity Gain [A] (MRSA HEMSA 5 [3]): 4–8 | Range of Reduction (oxacillin MIC) (MRSA HEMSA 5 [3]): from 512 to 64-128 | MIC (E. aerogenes CM-64; CM-64): 500 µM | MIC Value (MRSA HEMSA 5 [5]; MRSA HEMSA 5, compound alone, MH II broth): 0.125 mM | MIC (MRSA HEMSA 5 [5]; text summary for both strains: ATCC 25923 and MRSA HEMSA 5): 0.0625–0.125 mM and 28.25–56.5 µg/mL | Activity Gain [A] (S. aureus ATCC 25923 [6]): 1 | Range of Reduction (oxacillin MIC) (S. aureus ATCC 25923 [6]): no effect

O=C1NC(N2CCNCC2)=N/C1=C\c1ccc(-c2ccccc2)cc1 [Compound 5]
reduction of rifampin MIC ([7]; MDR Gram-negative bacteria): 32 fold | reduction of antibiotics MIC values ([7]; oxacillin, chloramphenicol, linezolid and clarytromycin): 8 fold

CN1CCN(CCCN2C(=O)/C(=C/c3ccc4ccccc4c3)N=C2N)CC1.Cl [Compound 9, (Z)-2-Amino-3-(3-(4-methylpiperazin-1-yl)propyl)-5-(naphthalen-2-ylmethylene)-3H-imidazol-4(5H)-one hydrochloride]
MIC (E. aerogenes Ea-289; Klebsiella aerogenes, EA289): > 2000 µM | HepG2 cells' viability (HepG2 cells; 10 µM): ~ 74 % of control | effect on HepG2 cells viability (HepG2 cells; 10 and 100 µM, p < 0.001 vs control): statistically significant decrease | MIC ([1]; Klebsiella aerogenes): 1000 µM | Papp at 5 h, 200 µM [8]: 0.72 ± 0.27 ×10⁻⁶ cm/s | MIC (S. aureus ATCC 25923 [2]): 500 µM | Inhibitory efficiency (IE) of 1,2'-dNA efflux [4]: 80% | Mean of Revertants ([9]; 1 µM): 9.33 | Fold Increase Over Baseline ([9]; 1 µM): 0.78 | Binomial B-Value ([9]; 1 µM): 0.6331 | Mean of Revertants ([9]; 10 µM): 5.33 | Fold Increase Over Baseline ([9]; 10 µM): 0.44 | Binomial B-Value ([9]; 10 µM): 0.0093 | maximum revertants occurred ([9]; 1 and 10 µM, mutagen alert 24 revertants): ≤ 11 revertants | MIC (E. aerogenes CM-64; Klebsiella aerogenes, CM64): > 2000 µM | melting point: 215 to 217 °C | MIC (MRSA HEMSA 5 [5]; [10]): 500 µM

COc1cccc2c1C(=O)c1c(O)c3c(c(O)c1C2=O)C[C@@](O)(C(=O)CO)C[C@@H]3O[C@H]1C[C@H](N)[C@H](O)[C@H](C)O1 [DX, doxorubicin, reference compound]
HepG2 cells' viability (HepG2 cells; 1 µM): ~ 15 % of control
